Measurements from PMC5218480 (PLoS ONE, 2017).

Test system: MV-4-11 cells
Experiment: Gene expression microarray analysis (Affymetrix PrimeView) and GSEA
Format: cell-based, human
Parameters: RFU PODN (11730768_x_at) / Fold change /veh PODN (11730768_x_at) / RFU LINC00158 (11744669_a_at) / Fold change /veh LINC00158 (11744669_a_at) / RFU DUSP10 (11751237_a_at) / Fold change /veh DUSP10 (11751237_a_at) / RFU ID3 (11757404_x_at) / Fold change /veh ID3 (11757404_x_at) / RFU PLEKHG5 (11737974_s_at) / Fold change /veh PLEKHG5 (11737974_s_at) / RFU LRRC4B (11730491_at) / Fold change /veh LRRC4B (11730491_at) / RFU GIMAP4 (11747438_a_at) / Fold change /veh GIMAP4 (11747438_a_at) / RFU KRT8 (11758183_x_at) / Fold change /veh KRT8 (11758183_x_at) / RFU CNN1 (11734310_a_at) / Fold change /veh CNN1 (11734310_a_at) / RFU VPS37D (11726825_at) / Fold change /veh VPS37D (11726825_at) / RFU C10orf10 (11716522_x_at) / Fold change /veh C10orf10 (11716522_x_at) / RFU KIR2DL2 /// KIR2DL4 /// KIR2DL5A /// KIR2DL5B /// KIR2DS1 /// KIR2DS2 /// KIR2DS3 /// KIR2DS4 /// KIR3DL3 /// KIR3DL3 /// KIR3DS1 (11738374_at) / Fold change /veh KIR2DL2 /// KIR2DL4 /// KIR2DL5A /// KIR2DL5B /// KIR2DS1 /// KIR2DS2 /// KIR2DS3 /// KIR2DS4 /// KIR3DL3 /// KIR3DL3 /// KIR3DS1 (11738374_at) / RFU C1QL1 (11718748_at) / Fold change /veh C1QL1 (11718748_at) / RFU TMPRSS4 (11747572_a_at) / Fold change /veh TMPRSS4 (11747572_a_at) / RFU HAMP (11756126_x_at) / Fold change /veh HAMP (11756126_x_at) / RFU RNFT2 (11725882_a_at) / Fold change /veh RNFT2 (11725882_a_at) / RFU NR4A2 (11747474_a_at) / Fold change /veh NR4A2 (11747474_a_at) / RFU ABCC12 (11746883_a_at) / Fold change /veh ABCC12 (11746883_a_at) / RFU TMEM136 (11760407_x_at) / Fold change /veh TMEM136 (11760407_x_at) / RFU CLDN22 /// WWC2 (11732394_at) / Fold change /veh CLDN22 /// WWC2 (11732394_at) / RFU HLA-DPB1 (11760878_x_at) / Fold change /veh HLA-DPB1 (11760878_x_at) / RFU SPINT1 (11716480_a_at) / Fold change /veh SPINT1 (11716480_a_at) / RFU GAP43 (11754022_s_at) / Fold change /veh GAP43 (11754022_s_at) / RFU A4GNT (11735810_at) / Fold change /veh A4GNT (11735810_at) / RFU PRB3 (11715151_x_at) / Fold change /veh PRB3 (11715151_x_at) / RFU TUBB4B (11761932_at) / Fold change /veh TUBB4B (11761932_at) / RFU CAPN14 (11732068_a_at) / Fold change /veh CAPN14 (11732068_a_at) / RFU TMCC2 (11721928_a_at) / Fold change /veh TMCC2 (11721928_a_at) / RFU IRGQ (11745062_a_at) / Fold change /veh IRGQ (11745062_a_at) / RFU FAM174B (11720279_a_at) / Fold change /veh FAM174B (11720279_a_at) / RFU TMPRSS4 (11748680_a_at) / Fold change /veh TMPRSS4 (11748680_a_at) / RFU FAM212B (11763350_a_at) / Fold change /veh FAM212B (11763350_a_at) / RFU PLEKHG5 (11743358_a_at) / Fold change /veh PLEKHG5 (11743358_a_at) / RFU ZSCAN30 (11745921_a_at) / Fold change /veh ZSCAN30 (11745921_a_at) / RFU CMKLR1 (11741424_a_at) / Fold change /veh CMKLR1 (11741424_a_at) / RFU LOC101060620 /// MAPK8IP1 (11723275_at) / Fold change /veh LOC101060620 /// MAPK8IP1 (11723275_at) / RFU SPTSSB (11747773_x_at) / Fold change /veh SPTSSB (11747773_x_at) / RFU PRSS12 (11739890_at) / Fold change /veh PRSS12 (11739890_at) / RFU BIN1 (11741810_x_at) / Fold change /veh BIN1 (11741810_x_at) / RFU WNT11 (11732464_a_at) / Fold change /veh WNT11 (11732464_a_at) / RFU C10orf10 (11716521_a_at) / Fold change /veh C10orf10 (11716521_a_at) / RFU C5orf56 (11738089_at) / Fold change /veh C5orf56 (11738089_at) / RFU CYB561 (11721691_x_at) / Fold change /veh CYB561 (11721691_x_at) / RFU ANKRD19P (11752326_a_at) / Fold change /veh ANKRD19P (11752326_a_at) / RFU OR2T12 /// OR2T33 /// OR2T8 (11738714_s_at) / Fold change /veh OR2T12 /// OR2T33 /// OR2T8 (11738714_s_at) / RFU VCAN (11748164_a_at) / Fold change /veh VCAN (11748164_a_at) / RFU JSRP1 (11732532_at) / Fold change /veh JSRP1 (11732532_at) / RFU KRTAP10-11 (11738290_x_at) / Fold change /veh KRTAP10-11 (11738290_x_at) / RFU MYO3A (11730013_a_at) / Fold change /veh MYO3A (11730013_a_at) / RFU EBF3 (11725865_a_at) / Fold change /veh EBF3 (11725865_a_at) / RFU CAMK2N1 (11719241_x_at) / Fold change /veh CAMK2N1 (11719241_x_at) / RFU C5orf56 (11738088_a_at) / Fold change /veh C5orf56 (11738088_a_at) / RFU OLFML3 (11715873_a_at) / Fold change /veh OLFML3 (11715873_a_at) / RFU LOC100653217 /// NTM (11731650_a_at) / Fold change /veh LOC100653217 /// NTM (11731650_a_at) / RFU MAPK11 (11762145_a_at) / Fold change /veh MAPK11 (11762145_a_at) / RFU FIZ1 (11724087_x_at) / Fold change /veh FIZ1 (11724087_x_at) / RFU OASL (11726364_x_at) / Fold change /veh OASL (11726364_x_at) / RFU SOX15 (11748057_x_at) / Fold change /veh SOX15 (11748057_x_at) / RFU CD79A (11719716_a_at) / Fold change /veh CD79A (11719716_a_at) / RFU HIST1H1D (11736915_at) / Fold change /veh HIST1H1D (11736915_at) / RFU CASKIN2 (11723855_a_at) / Fold change /veh CASKIN2 (11723855_a_at) / RFU LOC730098 (11760151_x_at) / Fold change /veh LOC730098 (11760151_x_at) / RFU OR4N2 (11742367_at) / Fold change /veh OR4N2 (11742367_at) / RFU PRRT2 (11749266_a_at) / Fold change /veh PRRT2 (11749266_a_at) / RFU SNX32 (11753110_a_at) / Fold change /veh SNX32 (11753110_a_at) / RFU CDHR5 (11726645_a_at) / Fold change /veh CDHR5 (11726645_a_at) / RFU RCAN1 (11760418_a_at) / Fold change /veh RCAN1 (11760418_a_at) / RFU FAM167A (11723789_a_at) / Fold change /veh FAM167A (11723789_a_at) / RFU FAM26E (11764081_at) / Fold change /veh FAM26E (11764081_at) / RFU ISYNA1 (11749810_s_at) / Fold change /veh ISYNA1 (11749810_s_at) / RFU ACY1 (11761880_at) / Fold change /veh ACY1 (11761880_at) / RFU 11764098_at / Fold change /veh 11764098_at / RFU SAMD14 (11745864_x_at) / Fold change /veh SAMD14 (11745864_x_at) / RFU NPB (11741838_a_at) / Fold change /veh NPB (11741838_a_at) / RFU TMPRSS6 (11731388_a_at) / Fold change /veh TMPRSS6 (11731388_a_at) / RFU KRTAP10-2 (11738614_at) / Fold change /veh KRTAP10-2 (11738614_at) / RFU ARHGAP8 /// PRR5-ARHGAP8 (11727945_x_at) / Fold change /veh ARHGAP8 /// PRR5-ARHGAP8 (11727945_x_at) / RFU KRTAP5-7 /// NADSYN1 (11734609_at) / Fold change /veh KRTAP5-7 /// NADSYN1 (11734609_at) / RFU RASL12 (11751679_a_at) / Fold change /veh RASL12 (11751679_a_at) / RFU CDKN2B (11736163_a_at) / Fold change /veh CDKN2B (11736163_a_at) / RFU PRF1 (11729649_at) / Fold change /veh PRF1 (11729649_at) / RFU, ZNF638 /// ZNF638-IT1 / Fold change vs veh, ZNF638 /// ZNF638-IT1 / RFU, PANK3 / Fold change vs veh, PANK3 / RFU, SH3YL1 / Fold change vs veh, SH3YL1 / RFU, ZEB2 / Fold change vs veh, ZEB2 / RFU, NRIP1 / Fold change vs veh, NRIP1 / RFU, PTTG1IP / Fold change vs veh, PTTG1IP / RFU, CAPN2 / Fold change vs veh, CAPN2 / RFU, MED14 / Fold change vs veh, MED14 / RFU, SNORA58 / Fold change vs veh, SNORA58 / RFU, C1orf63 / Fold change vs veh, C1orf63 / RFU, LRRFIP1 / Fold change vs veh, LRRFIP1 / RFU, NDUFAF7 / Fold change vs veh, NDUFAF7 / RFU, SLC12A2 / Fold change vs veh, SLC12A2 / RFU, IBTK / Fold change vs veh, IBTK / RFU, ESF1 / Fold change vs veh, ESF1 / Fold change vs veh, TMEM50B / RFU, TAOK1 / Fold change vs veh, TAOK1 / RFU, ACBD3 / Fold change vs veh, ACBD3 / RFU, TMA16 / Fold change vs veh, TMA16 / RFU, RWDD3 / Fold change vs veh, RWDD3 / RFU, BCAT1 / Fold change vs veh, BCAT1 / RFU, EDEM3 / Fold change vs veh, EDEM3 / RFU, TMEM33 / Fold change vs veh, TMEM33 / RFU, WDR75 / Fold change vs veh, WDR75 / RFU, AHCTF1 / Fold change vs veh, AHCTF1 / RFU, TFRC / Fold change vs veh, TFRC / RFU, ZDHHC17 / Fold change vs veh, ZDHHC17 / RFU, NOM1 / Fold change vs veh, NOM1 / RFU, ARL8B / Fold change vs veh, ARL8B / RFU, ZBTB11 / Fold change vs veh, ZBTB11 / RFU, TAMM41 / Fold change vs veh, TAMM41 / RFU, KIAA1704 /// LOC100996395 / Fold change vs veh, KIAA1704 /// LOC100996395 / RFU, ING1 / Fold change vs veh, ING1 / RFU, TRMT61B / Fold change vs veh, TRMT61B / RFU, FUBP3 / Fold change vs veh, FUBP3 / RFU, TP53 / Fold change vs veh, TP53 / RFU, TNKS2 / Fold change vs veh, TNKS2 / RFU, ZFP14 / Fold change vs veh, ZFP14 / RFU, ACTR2 / Fold change vs veh, ACTR2 / RFU, PPP3R1 / Fold change vs veh, PPP3R1 / RFU, PIK3R1 / Fold change vs veh, PIK3R1 / RFU, HNRNPA1 / Fold change vs veh, HNRNPA1 / RFU, RNF170 / Fold change vs veh, RNF170 / RFU, ZNF28 / Fold change vs veh, ZNF28 / RFU, RNGTT / Fold change vs veh, RNGTT / RFU, OGT / Fold change vs veh, OGT / RFU, BRD1 / Fold change vs veh, BRD1 / RFU, MARS / Fold change vs veh, MARS / RFU, ZNF655 / Fold change vs veh, ZNF655 / RFU, FAHD1 / Fold change vs veh, FAHD1 / RFU, BDP1 / Fold change vs veh, BDP1 / RFU, LRRCC1 / Fold change vs veh, LRRCC1 / RFU, ARID1A / Fold change vs veh, ARID1A / RFU, ZNF146 / Fold change vs veh, ZNF146 / RFU, ZNF330 / Fold change vs veh, ZNF330 / RFU, GPN3 / Fold change vs veh, GPN3 / RFU, C9orf123 / Fold change vs veh, C9orf123 / RFU, N4BP2L2 / Fold change vs veh, N4BP2L2 / RFU, ARFIP1 / Fold change vs veh, ARFIP1 / RFU, FAM179B / Fold change vs veh, FAM179B / RFU, BCL10 / Fold change vs veh, BCL10 / RFU, UHRF1BP1L / Fold change vs veh, UHRF1BP1L / RFU, BET1 / Fold change vs veh, BET1 / RFU, CNOT2 / Fold change vs veh, CNOT2 / RFU, ZNF268 / Fold change vs veh, ZNF268 / Fold change vs veh, ZNF507 / RFU, DGCR2 / Fold change vs veh, DGCR2 / RFU, WDSUB1 / Fold change vs veh, WDSUB1 / Fold change vs veh, HSP90B1 /// MIR3652 / RFU, ADSS / Fold change vs veh, ADSS / RFU, GK / Fold change vs veh, GK / RFU, ZNF148 / Fold change vs veh, ZNF148 / RFU, TAF9 / Fold change vs veh, TAF9 / RFU, SLC1A5 / Fold change vs veh, SLC1A5 / RFU, SLMO2 / Fold change vs veh, SLMO2 / RFU, ABCC4 / Fold change vs veh, ABCC4 / RFU, LOC101060439 /// RAP1B / Fold change vs veh, LOC101060439 /// RAP1B / RFU, RFX7 / Fold change vs veh, RFX7 / RFU, GTPBP10 / Fold change vs veh, GTPBP10 / RFU, CNEP1R1 / Fold change vs veh, CNEP1R1 / RFU, BIVM-ERCC5 /// ERCC5 / Fold change vs veh, BIVM-ERCC5 /// ERCC5 / RFU, ILF3 / Fold change vs veh, ILF3 / RFU 11762660_at / Fold change /veh 11762660_at / RFU VCAN (11757783_s_at) / Fold change /veh VCAN (11757783_s_at) / RFU DDX43 (11728927_at) / Fold change /veh DDX43 (11728927_at) / RFU KRT8 (11758188_x_at) / Fold change /veh KRT8 (11758188_x_at) / RFU NKD1 (11759106_at) / Fold change /veh NKD1 (11759106_at) / RFU SRD5A1 (11742802_a_at) / Fold change /veh SRD5A1 (11742802_a_at) / RFU TPSAB1 /// TPSB2 (11721975_s_at) / Fold change /veh TPSAB1 /// TPSB2 (11721975_s_at) / RFU GSTM3 (11746129_a_at) / Fold change /veh GSTM3 (11746129_a_at) / RFU IL23R (11737362_x_at) / Fold change /veh IL23R (11737362_x_at) / RFU TMEM51 (11727254_a_at) / Fold change /veh TMEM51 (11727254_a_at) / RFU PIWIL2 (11732686_x_at) / Fold change /veh PIWIL2 (11732686_x_at) / RFU ORM1 (11744905_x_at) / Fold change /veh ORM1 (11744905_x_at) / RFU CCDC152 (11743942_at) / Fold change /veh CCDC152 (11743942_at) / RFU ECM1 (11717891_a_at) / Fold change /veh ECM1 (11717891_a_at) / RFU IL23R (11748794_a_at) / Fold change /veh IL23R (11748794_a_at) / RFU TNFAIP8L3 (11732012_x_at) / Fold change /veh TNFAIP8L3 (11732012_x_at) / RFU MBOAT4 (11741988_at) / Fold change /veh MBOAT4 (11741988_at) / RFU 11764193_at / Fold change /veh 11764193_at / RFU TMEM53 (11763286_at) / Fold change /veh TMEM53 (11763286_at) / RFU MAGEB2 (11727129_at) / Fold change /veh MAGEB2 (11727129_at) / RFU TMEM200A (11744735_a_at) / Fold change /veh TMEM200A (11744735_a_at) / RFU CCDC152 (11751479_a_at) / Fold change /veh CCDC152 (11751479_a_at) / RFU FAM211A (11726209_a_at) / Fold change /veh FAM211A (11726209_a_at) / RFU RGS16 (11746705_a_at) / Fold change /veh RGS16 (11746705_a_at) / RFU VCAN (11755009_s_at) / Fold change /veh VCAN (11755009_s_at) / RFU RHOB (11743442_s_at) / Fold change /veh RHOB (11743442_s_at) / RFU RGS16 (11720943_a_at) / Fold change /veh RGS16 (11720943_a_at) / RFU RGS16 (11720944_at) / Fold change /veh RGS16 (11720944_at) / RFU, VPS4B / Fold change vs veh, VPS4B / RFU, CREB1 / Fold change vs veh, CREB1 / RFU, DNAJC13 / Fold change vs veh, DNAJC13 / RFU, GNAQ / Fold change vs veh, GNAQ / RFU, CDK5R1 / Fold change vs veh, CDK5R1 / RFU, ZRANB3 / Fold change vs veh, ZRANB3 / RFU, CUL4A / Fold change vs veh, CUL4A / RFU, CCNY / Fold change vs veh, CCNY / RFU, UFL1 / Fold change vs veh, UFL1 / RFU, COG3 / Fold change vs veh, COG3 / RFU, DIAPH2 / Fold change vs veh, DIAPH2 / RFU, SKA2 / Fold change vs veh, SKA2 / RFU, AFF3 / Fold change vs veh, AFF3 / RFU, LMF1 / Fold change vs veh, LMF1 / RFU, IPO11 / Fold change vs veh, IPO11 / RFU, DFFB / Fold change vs veh, DFFB / RFU, FOXP1 / Fold change vs veh, FOXP1 / RFU, CARD8 / Fold change vs veh, CARD8 / RFU, STRN3 / Fold change vs veh, STRN3 / RFU, ADK / Fold change vs veh, ADK / RFU, RASSF2 / Fold change vs veh, RASSF2 / RFU, WIPF1 / Fold change vs veh, WIPF1 / RFU, LARP1B / Fold change vs veh, LARP1B / RFU, RASA1 / Fold change vs veh, RASA1 / RFU, RB1 / Fold change vs veh, RB1 / RFU, PPFIA1 / Fold change vs veh, PPFIA1 / RFU, MAT2A / Fold change vs veh, MAT2A / RFU, CCT5 / Fold change vs veh, CCT5 / RFU, WDR92 / Fold change vs veh, WDR92 / RFU, CUX1 / Fold change vs veh, CUX1 / RFU, TTC7A / Fold change vs veh, TTC7A / RFU, TMEM135 / Fold change vs veh, TMEM135 / RFU, DEPTOR / Fold change vs veh, DEPTOR / RFU, CPM / Fold change vs veh, CPM / RFU, DNAJB6 / Fold change vs veh, DNAJB6 / RFU, CACNA2D3 / Fold change vs veh, CACNA2D3 / RFU, DTX4 / Fold change vs veh, DTX4 / RFU, TFCP2 / Fold change vs veh, TFCP2 / RFU, GMCL1 /// GMCL1P1 / Fold change vs veh, GMCL1 /// GMCL1P1 / RFU, AEBP2 / Fold change vs veh, AEBP2 / RFU, SNHG1 /// SNORD22 /// SNORD25 /// SNORD26 /// SNORD27 /// SNORD28 /// SNORD29 /// SNORD31 / Fold change vs veh, SNHG1 /// SNORD22 /// SNORD25 /// SNORD26 /// SNORD27 /// SNORD28 /// SNORD29 /// SNORD31 / Fold change (Aza/veh), C12orf56 (ProbeSet 11735607_a_at) / Fold change (ACY-1035/veh), C12orf56 (ProbeSet 11735607_a_at) / Fold change (Aza/veh), FGFR1OP (ProbeSet 11751329_s_at) / Fold change (ACY-1035/veh), FGFR1OP (ProbeSet 11751329_s_at) / Fold change (Aza/veh), VPS36 (ProbeSet 11739960_a_at) / Fold change (ACY-1035/veh), VPS36 (ProbeSet 11739960_a_at) / RFU SYPL1 (11715823_x_at) / Fold change /veh SYPL1 (11715823_x_at) / RFU IGFBP7 (11715501_s_at) / Fold change /veh IGFBP7 (11715501_s_at) / RFU REEP3 (11722064_at) / Fold change /veh REEP3 (11722064_at) / RFU IGLL1 (11728026_x_at) / Fold change /veh IGLL1 (11728026_x_at): dose or concentration left out as unconfirmed
Details: MV-4-11 cells, 48 hours

Nc1ccc(-c2cccs2)cc1NC(=O)c1ccc2c(c1)cc(C1CC1)n2CCN1CCOCC1 [ACY-1035]
RFU PLEKHG5 (11737974_s_at): 47.67 RFU
